Measured values reported in ChEMBL document CHEMBL1136483, “Synthesis and antiviral evaluation of 3-hydroxy-2-methylpyridin-4-one dideoxynucleoside derivatives” (Bioorg Med Chem Lett, 2003).

Tests used:
CCRF-CEM [1] = assay: Compound was tested for anti-viral activity against HIV-1 in CEM cells; assay type: functional, cell-based; conditions: Homo sapiens
CCRF-CEM [2] = assay: Compound was tested for anti-viral activity against HIV-2 in CEM cells; assay type: functional, cell-based; conditions: Homo sapiens
CCRF-CEM [3] = assay: Compound concentration required to reduce viability of CEM cells; assay type: functional; conditions: Homo sapiens
HEL [4] = assay: Compound concentration required to reduce viability of HEL cells; assay type: functional; conditions: Homo sapiens
HEL [5] = assay: Compound was tested for anti-viral activity against HSV-1(KOS) in HEL cells; assay type: functional, cell-based; conditions: Homo sapiens
HEL [6] = assay: Compound was tested for anti-viral activity against HSV-1TK neg in HEL cells; assay type: functional, cell-based; conditions: Homo sapiens
[7] = tested on: Human herpesvirus 2 (Herpes simplex virus type 2); assay: Compound was tested for anti-viral activity against HSV-2(G) in HEL cells

Row | Compound | EC50 (CCRF-CEM [1]) [µM] | EC50 (CCRF-CEM [2]) [µM] | CC50 (CCRF-CEM [3]) [µM] | CC50 (HEL [4]) [µM] | EC50 (HEL [5]) [µM] | EC50 (HEL [6]) [µM] | EC50 [7] [µM]
1 | Cc1c(O)c(=O)ccn1[C@H]1CS[C@@H](CO)O1 (racemic) | > 80 | > 80 | 203 | > 100 | 32 | 80 | 81
2 | Cc1c(O)c(=O)ccn1[C@@H]1CC[C@@H](CO)O1 | > 50 | > 50 | > 50 | > 900 | 177 | 500 | 500
3 | Cc1c(O)c(=O)ccn1[C@@H]1CS[C@@H](CO)O1 (racemic) | > 80 | > 80 | 203 | > 400 | 40 | 95 | 90
4 | Nc1nc2c(ncn2COC(CO)CO)c(=O)[nH]1 [GANCICLOVIR] | > 200 | > 200 | > 200 | > 400 | – | – | 0.06
5 | Nc1nc2c(ncn2COCCO)c(=O)[nH]1 [ACYCLOVIR] | > 200 | > 200 | > 200 | > 1700 | 0.32 | 88 | –
6 | Cc1c(O)c(=O)ccn1[C@H]1CC[C@@H](CO)O1 | > 50 | > 50 | 101 | > 900 | 40 | 500 | > 900
7 | Nc1ccn(C[C@@H](CO)OCP(=O)(O)O)c(=O)n1 [CIDOFOVIR] | > 200 | > 200 | > 200 | > 350 | 0.57 | – | –
